{
  "source": "patent US11806364B2",
  "about": "“Method for producing myeloid-derived suppressor cells, myeloid-derived suppressor cells produced thereby, and methods thereof” (Industry-Academic Cooperation Foundation, Yonsei University, priority 2017, dated 2023)",
  "key": {"bone marrow cells [1]": {"tested_on": "bone marrow cells", "test": "Cytokine applied in place of the TLR agonist, formation of M-MDSCs and dendritic cells", "format": "cell-based", "conditions": "day 6; for M-MDSCs are formed and differentiation into dendritic cells is inhibited: 3 method", "from_the_text": "On day 6 of culture, it was identified whether M-MDSCs and dendritic cells are formed."}, "bone marrow cells [2]": {"tested_on": "bone marrow cells", "test": "Phenotypic analysis of cells induced by TLR stimulation", "format": "cell-based, C57BL/6 mice", "conditions": "3 method, culture for 6 days", "from_the_text": "The results obtained by analyzing phenotypes of cells harvested after treating bone marrow cells with a TLR agonist in the same manner as the 3 method in Example 1 and performing culture for 6 days are illustrated in FIGS. 7 and 8. […] From these expression patterns, it was predictable that the cells induced by differentiation from the bone marrow cells are myeloid-derived suppressor cells (MDSCs)."}, "bone marrow cells [3]": {"tested_on": "bone marrow cells", "test": "MDSC subtypes by Gr-1, Ly6G and Ly6C expression", "format": "cell-based, C57BL/6 mice", "from_the_text": "As illustrated in Example 3, it can be seen that the cells, which have been induced by differentiation from bone marrow cells after TLR stimulation according to the 3 method in Example 1, are MDSCs. On the other hand, subtypes of the MDSCs may be divided into monocytic-MDSCs (M-MDSCs) and granulocytic-MDSCs (G-MDSCs). Gr-1^high cells mostly correspond to G-MDSCs, and Gr-1^low cells may be classified as M-MDSCs.\nThus, for MDSCs harvested after performing culture for 6 days with a Gr-1 antibody using the 3 method in Example 1, an expression level of Gr-1 was checked. The results are illustrated in FIGS. 9 and 10.\nFurthermore, in order to accurately classify subtypes of MDSCs, their expression patterns were identified using Ly6G and Ly6C antibodies."}, "bone marrow cells [4]": {"tested_on": "bone marrow cells", "test": "Differentiation of bone marrow cells with GM-CSF, proportion of CD11c+ cells", "format": "cell-based, C57BL/6 mice", "conditions": "for capacity of inhibiting dendritic cells (proportion of CD11c^+ cells): 50 ng/ml, 3 method (initiation of differentiation and day 3), day 6 of culture", "procedure": "Whole bone marrow cells in the femurs were harvested from C57BL/6 mice using a bone marrow harvesting needle. The harvested bone marrow cells were washed with PBS and red blood cells (RBCs) were removed using a red blood cell lysis buffer (Sigma Aldrich). The bone marrow cells were dispensed in a 6-well plate (1×10^6 cells/ml; 2 ml/well) and cultured, under a condition of 5% CO2 and 37° C., in complete RPMI 1640 (c-RPMI 1640) medium supplemented with 100 U/mL of penicillin/streptomycin (Lonza, Basel, Switzerland), 10% fetal bovine serum (Lonza), 50 μM mercaptoethanol (Lonza), 0.1 mM non-essential amino acids (Lonza), and GM-CSF (20 ng/mL). […] On day 3 of culture, the bone marrow cells and 1 ml of c-RPMI 1640 medium were added to each well. On day 6 of culture, the cells were collected and stained with Fluorescein-conjugated CD11c mAb to measure a proportion of CD11c^+ cells. […] In addition, in a case where the 3 method is used, proportions of CD11c^+ cells were checked for respective treatment concentrations of each TLR agonist (TLR2 agonist (Pam3)—1, 10, and 50 ng/ml; TLR3 agonist (Poly I:C)—10, 100, and 500 ng/ml; TLR4 agonist (LPS)—1, 10, and 50 ng/ml; TLR7 agonist (imiquimod)—1, 10, and 50 ng/ml; TLR9 agonist (CPG:ODN)—1, 10, and 50 ng/ml)."}, "bone marrow cells [5]": {"tested_on": "bone marrow cells", "test": "Ly6G/Ly6C expression patterns in C57BL/6 and MyD88^−/− mice", "format": "cell-based, C57BL/6 mice and C57BL/6 MyD88^−/− mice", "conditions": "MyD88 dependence study, 3 method", "procedure": "In order to identify whether differentiation into respective MDSCs' subtypes is induced in a MyD88-dependent manner, C57BL/6 mice and C57BL/6 MyD88^−/− mice were treated in the same manner as the 3 method in Example 1, and then expression patterns of Ly6G and Ly6C were identified in the same manner as in Example 4 (FIG. 13)."}, "bone marrow cells [6]": {"tested_on": "bone marrow cells", "test": "Proportion of CD11c+MHC-II+ cells after TLR agonist treatment, wild type", "format": "cell-based", "conditions": "C57BL/6 mice, 3 method", "procedure": "Additionally, in order to identify whether an effect of inhibiting differentiation into dendritic cells is induced in a MyD88-dependent manner, C57BL/6 mice and C57BL/6 MyD88^−/− mice were treated with a TLR agonist in the same manner as the 3 method in Example 1, to induce differentiation, and then a proportion of CD11c^+MHC-II^+ cells was measured. The results are illustrated in FIGS. 5 and 6."}, "bone marrow cells [7]": {"tested_on": "bone marrow cells", "test": "IL-6 or IL-6 receptor blocker together with TLR9 agonist, proportions of MDSCs and dendritic cells", "format": "cell-based", "conditions": "applied together with a TLR9 agonist, 3 method, day 6", "from_the_text": "In order to evaluate differentiation into M-MDSCs caused by IL-6 and functions of the M-MDSCs, recombinant IL-6 or an IL-6 receptor blocker was applied together with a TLR9 agonist using the 3 method in Example 1, and then the cells were harvested on day 6 of culture. Among the cells harvested according to the respective treatments, proportions of MDSCs and dendritic cells were checked."}, "M-MDSCs": {"tested_on": "M-MDSCs", "test": "Secondary differentiation into dendritic cells of M-MDSCs induced with TLR9 agonist plus IL-6 or IL-6 receptor blocker", "format": "cell-based", "conditions": "GM-CSF 5 days; compared with only TLR9 agonist", "procedure": "In order to identify whether the M-MDSCs induced according to respective treatments as described above are secondarily differentiated into dendritic cells, culture was performed for 5 days in the same manner as the method of inducing differentiation into dendritic cells in Example 8."}, "bone marrow cells [8]": {"tested_on": "bone marrow cells", "test": "TLR9 agonist on bone marrow cells of type I IFN receptor knockout mice", "format": "cell-based", "conditions": "3 method, day 6", "procedure": "Finally, in order to accurately check the function of type I IFN, bone marrow cells harvested from wild-type mice and type I IFN receptor knockout mice were treated with a TLR9 agonist using the 3 method in Example 1; and on day 6 of culture, degree of formation of PDCA-1^+ M-MDSCs and dendritic cells was evaluated."}, "bone marrow cells [9]": {"tested_on": "bone marrow cells", "test": "Cytokines induced at early differentiation stages after TLR stimulation", "format": "cell-based", "conditions": "for cytokines induced at early differentiation stages: 8, 18, and 36 hours after stimulation with TLR agonist; for IFN-γ, IL-15, IL-1β, TGF-β, IL-4, IL-12p70, IL-10, and FLT2L induction: not shown by data", "procedure": "Hereinafter, experiments were conducted assuming that for respective M-MDSCs induced by differentiation upon treatment with a TLR2 or TLR9 agonist, differences in phenotype, T cell inhibition capacity, regulatory T cell formation capacity, and differentiation into dendritic cells are due to different cytokine secretion induced by each TLR stimulation. Therefore, cytokines induced at early differentiation stages (8, 18, and 36 hours after stimulation with TLR agonist) after treatment of bone marrow cells with a TLR2 or TLR9 agonist were analyzed."}, "Ly6C^+ M-MDSCs": {"tested_on": "Ly6C^+ M-MDSCs", "test": "Ly6C+ M-MDSCs treated with GM-CSF, proportions of CD11c+ cells", "format": "cell-based", "conditions": "Ly6C^+ M-MDSCs of day 6, GM-CSF for 3 days", "procedure": "Then, GM-CSF was applied in the same manner as in Example 8 and culture was performed for 3 days. Subsequently, proportions of CD11c^+ cells were checked for the respective treatments.\nThen, on day 6 of culture, only Ly6C^+ M-MDSCs were collected. Subsequently, GM-CSF was applied in the same manner as in Example 8 and culture was performed for 3 days. Then, proportions of CD11c^+ cells were checked for the respective treatments."}},
  "data": [
    {"molecule": "CCCCC[C@H](O)/C=C/[C@H]1[C@H](O)CC(=O)[C@@H]1C/C=C\\CCCC(=O)O", "note": "[PGE2]", "values": [
      {"measurement": "M-MDSCs are formed and differentiation into dendritic cells is inhibited", "setting": "bone marrow cells [1]", "value": "in a concentration-dependent manner"}
    ]},
    {"molecule": "CC(C)Cn1cnc2c(N)nc3ccccc3c21", "note": "[TLR7 agonist, imiquimod]", "values": [
      {"measurement": "B220, another marker of pDCs", "setting": "bone marrow cells [2]", "value": "no significant difference"},
      {"measurement": "PDCA-1, a marker of plasmacytoid dendritic cells", "setting": "bone marrow cells [2]", "value": "highly induced"},
      {"measurement": "Gr-1^high MDSCs", "setting": "bone marrow cells [3]; 3 method, 6 days", "value": "induced at a high level"},
      {"measurement": "Ly6C^high M-MDSCs (X4 cells)", "setting": "bone marrow cells [3]; Ly6G and Ly6C antibodies", "value": "induced"},
      {"measurement": "capacity of inhibiting dendritic cells (proportion of CD11c^+ cells)", "setting": "bone marrow cells [4]", "value": "strongly induced"},
      {"measurement": "Ly6C^high M-MDSCs (X4 cells)", "setting": "bone marrow cells [5]", "value": "induced"},
      {"measurement": "proportion of CD11c^+MHC-II^+ cells", "setting": "bone marrow cells [6]", "value": "decreased"}
    ]},
    {"molecule": "IFN-α", "values": [
      {"measurement": "M-MDSCs are formed and differentiation into dendritic cells is inhibited", "setting": "bone marrow cells [1]", "value": "in a concentration-dependent manner"}
    ]},
    {"molecule": "IL-6: recombinant IL-6 protein", "values": [
      {"measurement": "differentiation into PDCA-1^+ M-MDSCs", "setting": "bone marrow cells [7]", "value": "increased"},
      {"measurement": "differentiation into dendritic cells", "setting": "bone marrow cells [7]", "value": "further decreased"},
      {"measurement": "M-MDSCs are formed and differentiation into dendritic cells is inhibited", "setting": "bone marrow cells [1]", "value": "in a concentration-dependent manner"},
      {"measurement": "M-MDSCs having the phenotype CD11c^−CD11b^+Ly6G^− Ly6C^+PDCA-1^−", "setting": "bone marrow cells [1]", "value": "induced in large quantities"},
      {"measurement": "degree of differentiation of M-MDSCs into dendritic cells", "setting": "M-MDSCs", "value": "remarkably decreased"}
    ]},
    {"molecule": "ODN1826 [TLR9 agonist]", "values": [
      {"measurement": "B220, another marker of pDCs", "setting": "bone marrow cells [2]", "value": "no significant difference"},
      {"measurement": "PDCA-1, a marker of plasmacytoid dendritic cells", "setting": "bone marrow cells [2]", "value": "highly induced"},
      {"measurement": "Gr-1^high MDSCs", "setting": "bone marrow cells [3]; 3 method, 6 days", "value": "induced at a high level"},
      {"measurement": "Ly6C^high M-MDSCs (X4 cells)", "setting": "bone marrow cells [3]; Ly6G and Ly6C antibodies", "value": "induced"},
      {"measurement": "capacity of inhibiting dendritic cells (proportion of CD11c^+ cells)", "setting": "bone marrow cells [4]", "value": "strongly induced"},
      {"measurement": "induction of MDSCs", "setting": "bone marrow cells [8]", "value": "not induced"},
      {"measurement": "cytokines induced at early differentiation stages", "setting": "bone marrow cells [9]", "value": "TNF-α, IL-6, IFN-α, and IFN-β"},
      {"measurement": "IFN-γ, IL-15, IL-1β, TGF-β, IL-4, IL-12p70, IL-10, and FLT2L induction", "setting": "bone marrow cells [9]", "value": "not induced"},
      {"measurement": "Ly6C^high M-MDSCs (X4 cells)", "setting": "bone marrow cells [5]", "value": "induced"},
      {"measurement": "proportion of CD11c^+MHC-II^+ cells", "setting": "bone marrow cells [6]", "value": "decreased"}
    ]},
    {"molecule": "Pam3CSK4 [TLR2 agonist]", "values": [
      {"measurement": "Gr-1^low MDSCs", "setting": "bone marrow cells [3]; 3 method, 6 days", "value": "induced at a high level"},
      {"measurement": "Ly6C^int M-MDSCs (X3 cells)", "setting": "bone marrow cells [3]; Ly6G and Ly6C antibodies", "value": "induced"},
      {"measurement": "capacity of inhibiting dendritic cells (proportion of CD11c^+ cells)", "setting": "bone marrow cells [4]", "value": "strongly induced"},
      {"measurement": "differentiation into dendritic cells (proportions of CD11c^+ cells)", "setting": "Ly6C^+ M-MDSCs", "value": "hardly induced"},
      {"measurement": "cytokines induced at early differentiation stages", "setting": "bone marrow cells [9]", "value": "TNF-α, IL-6, and PGE2"},
      {"measurement": "IL-6 induction", "setting": "bone marrow cells [9]; as compared with a case of being treated with the TLR9 agonist", "value": "remarkably induced"},
      {"measurement": "IFN-γ, IL-15, IL-1β, TGF-β, IL-4, IL-12p70, IL-10, and FLT2L induction", "setting": "bone marrow cells [9]", "value": "not induced"},
      {"measurement": "Ly6C^int M-MDSCs (X3 cells)", "setting": "bone marrow cells [5]", "value": "induced"},
      {"measurement": "proportion of CD11c^+MHC-II^+ cells", "setting": "bone marrow cells [6]", "value": "decreased"}
    ]},
    {"molecule": "poly I:C [TLR3 agonist]", "values": [
      {"measurement": "inhibition of differentiation into dendritic cells (proportions of CD11c^+ cells for respective treatment concentrations)", "setting": "bone marrow cells [4]; 3 method, 1, 10, 50 ng/ml (TLR3 agonist 10, 100, 500 ng/ml)", "value": "not observed"}
    ]}
  ]
}
